Experimental data as given in the supplement of paper PMC9386025.

Key:
Experiment in all cases: drug sensitivity score (DSS) (DSS (dimensionless)); higher = more sensitive (stronger drug response)
FIMM-PDC1 = patient-derived ovarian cancer cells; details: genetic perturbation: none (patient-derived cell culture)
Procedure, shortened: (§1)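 Ovarian cancer cell lines, after at least three days of shRNA induction with 100 ng/ml doxycycline, and patient-derived cultures were plated at 1 000 – 1 500 cells per well into 384-well plates pre-loaded with drugs at five concentrations spanning a 10,000-fold range. Plates were then kept for three days at 37 °C and 5.0 % CO2. Viability was measured as CellTiter-Glo luminescence on a PHERAstar FS, and each drug's dose-response curve was reduced to a drug sensitivity score computed by a previously described method.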

Kuramochi = tested on: Kuramochi
Procedure, shortened: as §1

FIMM-PDC7 = patient-derived ovarian cancer cells; details: genetic perturbation: none (patient-derived cell culture)
Procedure, shortened: as §1

FIMM-PDC4 = patient-derived ovarian cancer cells; details: genetic perturbation: none (patient-derived cell culture)
Procedure, shortened: as §1

JHOS2 = tested on: JHOS2
Procedure, shortened: as §1

FIMM-PDC6 = patient-derived ovarian cancer cells; details: genetic perturbation: none (patient-derived cell culture)
Procedure, shortened: as §1

OVSAHO = tested on: OVSAHO
Procedure, shortened: as §1

FIMM-PDC3 = patient-derived ovarian cancer cells; details: genetic perturbation: none (patient-derived cell culture)
Procedure, shortened: as §1

FIMM-PDC5 = patient-derived ovarian cancer cells; details: genetic perturbation: none (patient-derived cell culture)
Procedure, shortened: as §1

FIMM-PDC2 = patient-derived ovarian cancer cells; details: genetic perturbation: none (patient-derived cell culture)
Procedure, shortened: as §1

[1] = genetic perturbation: DOX-induced PTK7 shRNA knockdown
[2] = genetic perturbation: DOX-induced control shRNA

## C=CCn1c(=O)c2cnc(Nc3ccc(N4CCN(C)CC4)cc3)nc2n1-c1cccc(C(C)(C)O)n1 [AZD1775]
FIMM-PDC1
  drug sensitivity score: 21.6
Kuramochi; [1]
  drug sensitivity score: 10.3
Kuramochi; [2]
  drug sensitivity score: 9.9
FIMM-PDC7
  drug sensitivity score: 8.8
FIMM-PDC4
  drug sensitivity score: 10.4
JHOS2; [1]
  drug sensitivity score: 8.6
JHOS2; [2]
  drug sensitivity score: 8.3
FIMM-PDC6
  drug sensitivity score: 4
OVSAHO; [1]
  drug sensitivity score: 16.3
OVSAHO; [2]
  drug sensitivity score: 9.6
FIMM-PDC3
  drug sensitivity score: 17
FIMM-PDC5
  drug sensitivity score: 19
FIMM-PDC2
  drug sensitivity score: 12.9

## C[C@@H]1COCCN1c1cc(C2([S@](C)(=N)=O)CC2)nc(-c2cc[nH]c3nccc2-3)n1 [AZD6738]
FIMM-PDC1
  drug sensitivity score: 12.7
Kuramochi; [1]
  drug sensitivity score: 6.5
Kuramochi; [2]
  drug sensitivity score: 4.5
FIMM-PDC7
  drug sensitivity score: 8.6
FIMM-PDC4
  drug sensitivity score: 8.7
JHOS2; [1]
  drug sensitivity score: 6
JHOS2; [2]
  drug sensitivity score: 3.6
FIMM-PDC6
  drug sensitivity score: 11
OVSAHO; [1]
  drug sensitivity score: 6.2
OVSAHO; [2]
  drug sensitivity score: 5.5
FIMM-PDC3
  drug sensitivity score: 13
FIMM-PDC5
  drug sensitivity score: 10.4
FIMM-PDC2
  drug sensitivity score: 9.5

## O=C1CCc2c(Oc3ccc4c(c3)[C@@H]3[C@H](O4)[C@H]3c3nc4cc(C(F)(F)F)ccc4[nH]3)ccnc2N1 [BGB-283]
FIMM-PDC1
  drug sensitivity score: 1.05
Kuramochi; [1]
  drug sensitivity score: 3.6
Kuramochi; [2]
  drug sensitivity score: 1.7
FIMM-PDC7
  drug sensitivity score: 5.8
FIMM-PDC4
  drug sensitivity score: 7.7
JHOS2; [1]
  drug sensitivity score: 1.8
JHOS2; [2]
  drug sensitivity score: 6.4
FIMM-PDC6
  drug sensitivity score: 7.3
OVSAHO; [1]
  drug sensitivity score: 2.4
OVSAHO; [2]
  drug sensitivity score: 4
FIMM-PDC3
  drug sensitivity score: 4.1
FIMM-PDC5
  drug sensitivity score: 10.4
FIMM-PDC2
  drug sensitivity score: 3.4

## CO[C@H]1CC[C@H](N2C(=O)CNc3ncc(-c4ccc(C(C)(C)O)nc4)nc32)CC1 [CC-223]
FIMM-PDC1
  drug sensitivity score: 3.2
Kuramochi; [1]
  drug sensitivity score: 5.1
Kuramochi; [2]
  drug sensitivity score: 4.6
FIMM-PDC7
  drug sensitivity score: 9.5
FIMM-PDC4
  drug sensitivity score: 5.9
JHOS2; [1]
  drug sensitivity score: 3.3
JHOS2; [2]
  drug sensitivity score: 3.3
FIMM-PDC6
  drug sensitivity score: 5.3
OVSAHO; [1]
  drug sensitivity score: 6.6
OVSAHO; [2]
  drug sensitivity score: 4.9
FIMM-PDC3
  drug sensitivity score: 3.5
FIMM-PDC5
  drug sensitivity score: 10.3
FIMM-PDC2
  drug sensitivity score: 4.7

## CC1(C)OCCn2c1nc1c(N3CCOCC3)nc(-c3cnc(N)nc3)nc12 [GDC-0084]
FIMM-PDC1
  drug sensitivity score: 7.65
Kuramochi; [1]
  drug sensitivity score: 10.2
Kuramochi; [2]
  drug sensitivity score: 6.3
FIMM-PDC7
  drug sensitivity score: 14.2
FIMM-PDC4
  drug sensitivity score: 13.1
JHOS2; [1]
  drug sensitivity score: 7
JHOS2; [2]
  drug sensitivity score: 8.5
FIMM-PDC6
  drug sensitivity score: 13.3
OVSAHO; [1]
  drug sensitivity score: 10.2
OVSAHO; [2]
  drug sensitivity score: 9.7
FIMM-PDC3
  drug sensitivity score: 7.9
FIMM-PDC5
  drug sensitivity score: 17
FIMM-PDC2
  drug sensitivity score: 10.3

## Cc1sc2c(c1C)C(c1ccc(Cl)cc1)=N[C@@H](CC(=O)NCCCCNC(=O)COc1cccc3c1C(=O)N(C1CCC(=O)NC1=O)C3=O)c1nnc(C)n1-2 (stereo partly drawn) [dBET1]
FIMM-PDC1
  drug sensitivity score: 0.1
Kuramochi; [1]
  drug sensitivity score: 3.9
Kuramochi; [2]
  drug sensitivity score: 4.4
FIMM-PDC7
  drug sensitivity score: 5.8
FIMM-PDC4
  drug sensitivity score: 8.1
JHOS2; [1]
  drug sensitivity score: 3.2
JHOS2; [2]
  drug sensitivity score: 5.5
FIMM-PDC6
  drug sensitivity score: 7.5
OVSAHO; [1]
  drug sensitivity score: 4.3
OVSAHO; [2]
  drug sensitivity score: 3.4
FIMM-PDC3
  drug sensitivity score: 2.7
FIMM-PDC5
  drug sensitivity score: 11
FIMM-PDC2
  drug sensitivity score: 2.6
